In the experiment the test system is STZ diabetic Sprague Dawley rats. Put plainly: Reversal of thermal hypoalgesia in diabetic rats, subcutaneous. The following applies: 10 mg/kg daily s.c. from week 12; 20th week, 8 weeks of treatment. The experiment is classed as in vivo, rat. Here is the method: One group of adult male Sprague Dawley rats were made diabetic with a single intraperitoneal injection of 75 mg/kg STZ, while a second group of adult male rats were maintained as non-diabetic controls. The two groups of rats were monitored for the onset of […] by assessing thermal latency at 4-wk intervals.

For `CN1CCN(CC(=O)N2c3ccccc3C(=O)Nc3cccnc32)CC1` [pirenzepine, 11-[2-(4-methylpiperazin-1-yl)acetyl]-5H-pyrido[2,3-b][1,4]benzodiazepin-6-1], the thermal latency result is reported as “dropped to approximate the levels in the non-diabetic control rats”.
